Assay results published in US11319348B2, “Synthetic beta-amyloid peptides capable of forming stable antigenic oligomers” (The Regents of the University of California, priority 2016, dated 2022).
Non-standard residues stand in square brackets, D forms with d. No end group written: not given here. NMeF = CN[C@@H](Cc1ccccc1)C(=O)O; Orn = NCCC[C@H](N)C(=O)O

Columns and labels:
[1] = X-ray crystallography, oligomers in the crystal; format: physicochemical; conditions: crystal state
Experimental: The structures of trimers 3 and 4 were elucidated by X-ray crystallography. One of the challenges in X-ray crystallography is determining the X-ray crystallographic phases. Doing so often requires incorporation of a heavy atom—such as selenium, bromine or iodine—through covalent modification. In previously solving the X-ray crystallographic structures of peptides 1 and 2, homologues were prepared containing p-iodophenylalanine. In solving the X-ray crystallographic structures of trimers 3 and 4, two techniques for X-ray crystallographic phase determination that have not been widely used for peptides were employed: sulfur single-wavelength anomalous diffraction (S-SAD) and post-crystallization incorporation of iodide ions into the crystal lattice.
S-SAD was used to determine the X-ray crystallographic structure of trimer 4. The intrinsic anomalous scattering of the sulfur atoms in the asymmetric unit provided sufficient data to determine the X-ray crystallographic phases. […]
Diffraction data for trimers 3 and 4 were collected on a Rigaku Micromax-007HF X-ray diffractometer with a rotating copper anode at 1.54 Å wavelength with 0.5° oscillation. […] Coordinates for the anomalous signals were determined by HySS in the Phenix software suite 1.10.1. Electron density maps were generated using anomalous coordinates determined by HySS as initial positions in Autosol. […]

A11 antibody = experiment: dot blot with A11 antibody; format: binding
Text: The LDH release and caspase-3 activation studies indicate that trimers 3 and 4 behave similarly to oligomers of full-length Aβ, providing evidence for the biological significance of the triangular assembly. To further evaluate how the biological properties of trimers 3 and 4 compare to those of full-length Aβ, the reactivity of trimers 3 and 4 with the conformation specific antibody A11 was examined. […] The structures of the A oligomers recognized by the A11 antibody are not known. We investigated whether the A11 antibody recognizes trimers 3 and 4 by dot blot analysis.
A 10 mg/mL stock solution of peptides 1 or 2, or trimers 3 or 4 was prepared gravimetrically by dissolving 1 mg of each compound in 100 μL of deionized water that was either filtered through a 0.2 μm syringe filter. An aliquot of each stock solution was diluted with deionized water to make 3 mg/mL solutions. The 3 mg/mL solutions were then serially diluted with deionized water to create 1.5 mg/mL, 0.75 mg/mL, and 0.37 mg/mL solutions. A 5 μL aliquot of each solution from the serial dilution was combined with 5 μL of a 2× solution of phosphate buffered saline (PBS) at pH 7.4 to generate 1.5 mg/mL, 0.75 mg/mL, and 0.37 mg/mL, and 0.18 mg/mL buffered solutions of peptides 1 or 2 or trimers 3 or 4. A 1-μL aliquot of each buffered solution was spotted onto a nitrocellulose membrane and allowed to aft dry (˜5 min). Non-reactive sites were blocked with 10% (w/v) non-fat powdered milk in low-Tween Tris-buffered saline (TBS-IT: 20 mM Tris, 137 mM NaCl; 0.01% Tween 20, pH 7.6) for 1 h at room temperature with rocking. The membrane was then incubated while rocking overnight at 4° C. in primary A11 antibody (200 μg/mL) in 5% non-fat powdered milk in TBS-IT. The next day, the membrane was washed with TBS-IT for 5 min (3×). The membrane was then incubated while rocking with horseradish peroxidase conjugated goat anti-rabbit antibody (100 μg/mL) (Jackson ImmunoResearch catalog #111-035-003) in 5% non-fat powdered milk in TBS-IT for 1 h at room temperature. The membrane was then washed with TBS-IT for 5 min (3×). A 10 mL portion of chemiluminescence substrate (Thermo Scientific SuperSignal West Femto Maximum Sensitivity Substrate, product #34095) was prepared according to manufacturer's protocol and poured onto the membrane. The membrane was allowed to incubate in the chemiluminescence substrate for ˜10 min before imaging. The blot was imaged using a standard digital SLR camera.

[2] = size exclusion chromatography in Tris buffer; format: physicochemical; conditions: SEC
Text: The elution profile of peptide 8 was compared to the size standards vitamin B12, aprotinin, and cytochrome c, as well as peptide 2. Peptide 8 elutes as a broad peak with three distinct humps (FIG. 41B). […] Peptide 2 elutes as two distinct peaks: a larger peak with an elution volume consistent with the molecular weight of a dimer, and a smaller peak with an elution volume consistent with the molecular weight of a trimer (FIG. 41B). […]

Row | Substance | oligomer size by crystallography [1] | A11 reactivity (A11 antibody) | reaction with A11 antibody (A11 antibody) | oligomer size [2]
1 | trimer 3: symmetric tris-disulfide crosslinked trimer generated from peptide 3 (chain 1 [Orn]CVFFCED; chain 2 [Orn]AIIGL[Orn]V; not fully specified (some residues); also: symmetric tris-disulfide crosslinked trimer, macrocyclic by macrolactamization, linkage of strands not given here) | 6 | yes | react with the A11 antibody | –
2 | trimer 4: symmetric tris-disulfide crosslinked trimer generated from peptide 4 (chain 1 [Orn]CVF[NMeF]CED; chain 2 [Orn]AIIGL[Orn]V; also: symmetric tris-disulfide crosslinked trimer, macrocyclic by macrolactamization, linkage of strands not given here) | – | yes | react with the A11 antibody | –
3 | peptide 2: macrocyclic β-sheet peptide: Aβ17-23 and Aβ30-36 strands linked by two δOrn turns, Orn35, N-methyl on F20 (Seq. ID 20-21) | – | no | do not | dimer, trimer
4 | peptide 1: macrocyclic β-sheet peptide: Aβ17-23 and Aβ30-36 strands linked by two δOrn turns, Orn35, N-methyl on G33 (Seq. ID 18-19) | – | no | do not | –
